Assay results published in paper PMC10987480, “Biological and mutational analyses of CXCR4–antagonist interactions and design of new antagonistic analogs” (Bioscience Reports, 2023).
pIC50: −log10 of the molar value. Positions of bridges follow the written chain, without caps; N, C: chain ends. Non-standard residues stand in square brackets, D forms with d. Chains are numbered I, II in the order given. No end group written: not given here.

Columns and labels:
[1] = molecular target: T1, CXCR4 E288A (Homo sapiens, UniProt P61073, E288A); experiment: Competitive binding to CXCR4 mutant E288A (12G5, CHO cells); details: TM7, class of reduction vs wild-type CXCR4, 12G5 competition, averages of at least three independent experiments
T1 construct: expressed in transfected cells
Description: (§1) Plasmid pcDNA3-CXCR4 and mutated pcDNA3-CXCR4 were extracted and transfected into CHO cells using Lipofectamine 2000 according to the manufacturer’s guidelines. The selective medium containing G418 at a concentration of 1.2 mg/ml was applied to isolate stably transfected cells. CHO cells expressing wild-type CXCR4 and mutant CXCR4 were obtained using fluorescence-activated cell sorting (FACS).
(§2) All of the CXCR4 mutants were prepared using PCR technology. Briefly, pairs of asymmetrical primers containing the desired amino acid mutations (Supplementary Tables S1 and S2), each complementary to opposite strands of the pcDNA3–CXCR4, were designed for amplification by Q5® High-Fidelity DNA polymerase and the generation of mutated constructs. The methylated pcDNA3–CXCR4 templates were digested by DpnI. The mutated pcDNA3–CXCR4 was transformed into competent E. coli TOP10 for long-term storage and amplification.
(§3) The procedure for the CXCR4 competitive binding experiments was published previously. Briefly, CXCR4 antibody 12G5 (250 ng/ml) was incubated with 5 × 10^5 cells and varying concentrations of unlabeled compounds in a final volume of 100 μl of assay buffer (PBS with 0.5% BSA and 0.05% NaN3) in 96-well plates for 40 min on ice, after being washed with assay buffer once. The cells were incubated with FITC-conjugated second antibody IgG for 30 min on ice, then washed with assay buffer three times. The fluorescence intensity was measured for excitation at 485 nm and emission at 535 nm using multimode plate reader (PerkinElmer). The IC50 values were calculated using graphpad Prism 7. Experiments were performed at least three times.

[2] = molecular target: T2, CXCR4 Y116A (Homo sapiens, UniProt P61073, Y116A); experiment: Competitive binding to CXCR4 mutant Y116A (12G5, CHO cells); details: TM3, class of reduction vs wild-type CXCR4, 12G5 competition, averages of at least three independent experiments
T2 construct: expressed in transfected cells
Description: as §1, §2, §3

[3] = molecular target: T3, CXCR4 T117A (Homo sapiens, UniProt P61073, T117A); experiment: Competitive binding to CXCR4 mutant T117A (12G5, CHO cells); details: TM3, class of reduction vs wild-type CXCR4, 12G5 competition, averages of at least three independent experiments
T3 construct: expressed in transfected cells
Description: as §1, §2, §3

[4] = molecular target: T4, CXCR4 D262N (Homo sapiens, UniProt P61073, D262N); experiment: Competitive binding to CXCR4 mutant D262N (12G5, CHO cells); details: TM6, class of reduction vs wild-type CXCR4, 12G5 competition, averages of at least three independent experiments
T4 construct: expressed in transfected cells
Description: as §1, §2, §3

[5] = molecular target: T5, CXCR4 Y45A (Homo sapiens, UniProt P61073, Y45A); experiment: Competitive binding to CXCR4 mutant Y45A (12G5, CHO cells); details: TM1, class of reduction vs wild-type CXCR4, 12G5 competition, averages of at least three independent experiments
T5 construct: expressed in transfected cells
Description: as §1, §2, §3

[6] = molecular target: T6, CXCR4 Q200A (Homo sapiens, UniProt P61073, Q200A); experiment: Competitive binding to CXCR4 mutant Q200A (12G5, CHO cells); design: key to the marks not given beside the values; details: TM5, class of reduction vs wild-type CXCR4, 12G5 competition, averages of at least three independent experiments
T6 construct: expressed in transfected cells
Description: as §1, §2, §3

[7] = molecular target: T7, CXCR4 D171A (Homo sapiens, UniProt P61073, D171A); experiment: Competitive binding to CXCR4 mutant D171A (12G5, CHO cells); details: TM4, class of reduction vs wild-type CXCR4, 12G5 competition, averages of at least three independent experiments
T7 construct: expressed in transfected cells
Description: as §1, §2, §3

[8] = molecular target: T8, CXCR4 F87A (Homo sapiens, UniProt P61073, F87A); experiment: Competitive binding to CXCR4 mutant F87A (12G5, CHO cells); details: TM2, class of reduction vs wild-type CXCR4, 12G5 competition, averages of at least three independent experiments
T8 construct: expressed in transfected cells
Description: as §1, §2, §3

[9] = molecular target: CXCR4 (Homo sapiens, UniProt P61073); experiment: Competitive CXCR4 binding assay (12G5 antibody probe), wild-type CXCR4 transfected CHO cells; design: expressed in transfected cells; Competitive receptor binding activity, wild-type CXCR4 (WT): key to the marks not given beside the values; details: class relative to wild-type; 12G5 competition, stably transfected CHO cells; averages of at least three independent experiments
Description: The CXCR4-specific antibody, 12G5 was used as a probe for the competitive CXCR4 binding assay to evaluate the binding activity of CXCR4 antagonists.
Figure 1 Competitive CXCR4 binding curves of eleven CXCR4 antagonists The CXCR4 transfected CHO cells were incubated with different concentrations of antagonists and 250 ng/ml 12G5 antibody. The CXCR4-binding 12G5 antibody was recognized by FITC-conjugated anti-IgG second antibody. The cells treated with only second antibody were used as a negative control (0%) while cells treated with both 12G5 antibody and second antibody were used as a positive control (100%). Cells treated with CXCR4 antagonists were calculated in percentage relative to the positive and negative controls. The data were averages of at least three independent experiments and shown as mean ± standard error of the mean (S.E.M.).
as §3

[10] = molecular target: T9, CXCR4 I259A (Homo sapiens, UniProt P61073, I259A); experiment: Competitive binding to CXCR4 mutant I259A (12G5, CHO cells); design: key to the marks not given beside the values; details: TM6, class of reduction vs wild-type CXCR4, 12G5 competition, averages of at least three independent experiments
T9 construct: expressed in transfected cells
Description: as §1, §2, §3

[11] = molecular target: T10, CXCR4 E288Q (Homo sapiens, UniProt P61073, E288Q); experiment: Competitive binding to CXCR4 mutant E288Q (12G5, CHO cells); details: TM7, class of reduction vs wild-type CXCR4, 12G5 competition, averages of at least three independent experiments
T10 construct: expressed in transfected cells
Description: as §1, §2, §3

[12] = molecular target: T11, CXCR4 N119A (Homo sapiens, UniProt P61073, N119A); experiment: Competitive binding to CXCR4 mutant N119A (12G5, CHO cells); details: TM3, class of reduction vs wild-type CXCR4, 12G5 competition, averages of at least three independent experiments
T11 construct: expressed in transfected cells
Description: as §1, §2, §3

[13] = molecular target: T12, CXCR4 E288D (Homo sapiens, UniProt P61073, E288D); experiment: Competitive binding to CXCR4 mutant E288D (12G5, CHO cells); details: TM7, class of reduction vs wild-type CXCR4, 12G5 competition, averages of at least three independent experiments
T12 construct: expressed in transfected cells
Description: as §1, §2, §3

[14] = molecular target: T13, CXCR4 W94A (Homo sapiens, UniProt P61073, W94A); experiment: Competitive binding to CXCR4 mutant W94A (12G5, CHO cells); details: TM2, class of reduction vs wild-type CXCR4, 12G5 competition, averages of at least three independent experiments
T13 construct: expressed in transfected cells
Description: as §1, §2, §3

[15] = molecular target: T14, CXCR4 W195A (Homo sapiens, UniProt P61073, W195A); experiment: Competitive binding to CXCR4 mutant W195A (12G5, CHO cells); details: TM4, class of reduction vs wild-type CXCR4, 12G5 competition, averages of at least three independent experiments
T14 construct: expressed in transfected cells
Description: as §1, §2, §3

[16] = test system: CXCR4; details: read-out: IC50; cited from earlier work
From the text: To understand the receptor–ligand recognition mechanism involving CXCR4 and its antagonists, here in this study we conducted a series of comparative analyses of the biological activities and CXCR4 binding sites of eleven known CXCR4 antagonists, including the three mentioned above, using cell-based bioassays, CXCR4 site-directed mutagenesis and computer-aided molecular modeling. These antagonists studied here were chosen from different representative structural types including both D-peptides (i.e., HC4319, DV1, DV1 dimer, and DV3) and a representative counterpart L-peptide (i.e., V1) derived ...

T8 sequence (P61073 whole entry F87A): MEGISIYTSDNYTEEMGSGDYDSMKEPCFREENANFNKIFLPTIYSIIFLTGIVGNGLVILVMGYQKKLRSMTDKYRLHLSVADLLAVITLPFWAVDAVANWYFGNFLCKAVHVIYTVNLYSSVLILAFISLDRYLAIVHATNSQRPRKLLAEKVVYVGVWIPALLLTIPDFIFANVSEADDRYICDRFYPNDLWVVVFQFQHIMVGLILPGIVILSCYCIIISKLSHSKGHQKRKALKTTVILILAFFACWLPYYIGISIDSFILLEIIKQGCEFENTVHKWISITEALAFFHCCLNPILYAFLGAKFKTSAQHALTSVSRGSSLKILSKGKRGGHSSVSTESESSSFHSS
T5 sequence (P61073 whole entry Y45A): as the sequence (P61073 whole entry F87A) above, with Y45A, A87F counted along it
T3 sequence (P61073 whole entry T117A): as the sequence (P61073 whole entry F87A) above, with A87F, T117A counted along it
T14 sequence (P61073 whole entry W195A): as the sequence (P61073 whole entry F87A) above, with A87F, W195A counted along it
T9 sequence (P61073 whole entry I259A): as the sequence (P61073 whole entry F87A) above, with A87F, I259A counted along it
T12 sequence (P61073 whole entry E288D): as the sequence (P61073 whole entry F87A) above, with A87F, E288D counted along it
T4 sequence (P61073 whole entry D262N): as the sequence (P61073 whole entry F87A) above, with A87F, D262N counted along it
T1 sequence (P61073 whole entry E288A): as the sequence (P61073 whole entry F87A) above, with A87F, E288A counted along it
T11 sequence (P61073 whole entry N119A): as the sequence (P61073 whole entry F87A) above, with A87F, N119A counted along it
T13 sequence (P61073 whole entry W94A): as the sequence (P61073 whole entry F87A) above, with A87F, W94A counted along it
T7 sequence (P61073 whole entry D171A): as the sequence (P61073 whole entry F87A) above, with A87F, D171A counted along it
T10 sequence (P61073 whole entry E288Q): as the sequence (P61073 whole entry F87A) above, with A87F, E288Q counted along it
T6 sequence (P61073 whole entry Q200A): as the sequence (P61073 whole entry F87A) above, with A87F, Q200A counted along it
T2 sequence (P61073 whole entry Y116A): as the sequence (P61073 whole entry F87A) above, with A87F, Y116A counted along it
CXCR4 (Homo sapiens, UniProt P61073), sequence (P61073 whole entry): as the sequence (P61073 whole entry F87A) above, with A87F counted along it

For “I: [dL]G[dA][dS][dW][dH][dR][dP][dD][dK][dC][dC][dL]G[dY][dQ][dK][dR][dP][dL][dP] / II: [dL]G[dA][dS][dW][dH][dR][dP][dD][dK][dC][dC][dL]G[dY][dQ][dK][dR][dP][dL][dP] (disulfide I:11-II:11, I:12-II:12) [DV1 dimer]”, the “Competitive receptor binding activity, CXCR4 E288A” value [1] was “+ (30–60% reduction compared with wild-type CXCR4)”, the “Competitive receptor binding activity, CXCR4 Y116A” value [2] was “+ (30–60% reduction compared with wild-type CXCR4)” and the “Competitive receptor binding activity, CXCR4 T117A” value [3] was “++ (10–29% reduction compared with wild-type CXCR4)”. For the same substance, the “Competitive receptor binding activity, CXCR4 D262N” value [4] was “+ (30–60% reduction compared with wild-type CXCR4)”, the “Competitive receptor binding activity, CXCR4 Y45A” value [5] was “++ (10–29% reduction compared with wild-type CXCR4)” and the “Competitive receptor binding activity, CXCR4 Q200A” value [6] was “+++”. The “Competitive receptor binding activity, CXCR4 D171A” value [7] was “++ (10–29% reduction compared with wild-type CXCR4)”, the “Competitive receptor binding activity, CXCR4 F87A” value [8] was “+ (30–60% reduction compared with wild-type CXCR4)” and the “Competitive receptor binding activity, wild-type CXCR4 (WT)” value [9] was “+++”. For the same substance, the “Competitive receptor binding activity, CXCR4 I259A” value [10] was “+++”, the “Competitive receptor binding activity, CXCR4 E288Q” value [11] was “+ (30–60% reduction compared with wild-type CXCR4)” and the “Competitive receptor binding activity, CXCR4 N119A” value [12] was “+ (30–60% reduction compared with wild-type CXCR4)”. For the same substance, the “Competitive receptor binding activity, CXCR4 E288D” value [13] was “++ (10–29% reduction compared with wild-type CXCR4)”, the “Competitive receptor binding activity, CXCR4 W94A” value [14] was “+ (30–60% reduction compared with wild-type CXCR4)” and the “Competitive receptor binding activity, CXCR4 W195A” value [15] was “+++”.

In the case of “LGASWHRPDKCCLGYQKRPLPQVLLSSWYPTSQLCSKPGVIFLTKRGRQVCADKSKDWVKKLMQQLPVTAR [vMIP-II, viral macrophage-inflammatory protein-II, full-length natural chemokine antagonist produced by human herpesvirus-8; recombinant from Peprotech]”, the “Competitive receptor binding activity, CXCR4 E288A” value [1] was “+++”, the “Competitive receptor binding activity, CXCR4 Y116A” value [2] was “++ (10–29% reduction compared with wild-type CXCR4)” and the “Competitive receptor binding activity, CXCR4 T117A” value [3] was “+++”. The “Competitive receptor binding activity, CXCR4 D262N” value [4] was “+++”, the “Competitive receptor binding activity, CXCR4 Y45A” value [5] was “+++” and the “Competitive receptor binding activity, CXCR4 Q200A” value [6] was “+++”. For the same substance, the “Competitive receptor binding activity, CXCR4 D171A” value [7] was “+++”, the “Competitive receptor binding activity, CXCR4 F87A” value [8] was “+ (30–60% reduction compared with wild-type CXCR4)” and the “Competitive receptor binding activity, wild-type CXCR4 (WT)” value [9] was “+++”. The “Competitive receptor binding activity, CXCR4 I259A” value [10] was “+++”, the “Competitive receptor binding activity, CXCR4 E288Q” value [11] was “++ (10–29% reduction compared with wild-type CXCR4)” and the pIC50 [16] was 8.24. For the same substance, the “Competitive receptor binding activity, CXCR4 N119A” value [12] was “++ (10–29% reduction compared with wild-type CXCR4)”, the “Competitive receptor binding activity, CXCR4 E288D” value [13] was “+++” and the “Competitive receptor binding activity, CXCR4 W94A” value [14] was “+ (30–60% reduction compared with wild-type CXCR4)”. For the same substance, the “Competitive receptor binding activity, CXCR4 W195A” value [15] was “++ (10–29% reduction compared with wild-type CXCR4)”.
